Results published in PMC3086245 (Emerging Infectious Diseases, 2010).

Test system: M2 of influenza viruses A (H1N1)
Conditions: almost all the ORVs

In the case of `NC12CC3CC(CC(C3)C1)C2` [amantadine], the “susceptibility by M2 sequencing (in words)” value is reported as “sensitive”.
